Reference: publication PMC4893628, “Chalcone-based Selective Inhibitors of a C4 Plant Key Enzyme as Novel Potential Herbicides” (Scientific Reports, 2016)
Several values for one entry are separate records, joined by “and”; a condition that tells them apart may be missing. Identical values can stand only once. Like-named read-outs stand apart in the source and are kept apart here.

Columns and labels:
[1] = tested on: Pseudomonas putida KT2440; assay: Bacterial growth in microscale cultivation, P. putida; assay type: cell-based; conditions: relative to control; for activity at 0.3 µM / activity at 3 µM / activity at 30 µM: Pseudomonas putida
In short: (§1)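 Inhibitors in DMSO were added to the medium, at a maximum of 400 μM for trans-chalcone and 100 μM for 2'-hydroxychalcone. Cultures were seeded at OD600 0.5, or 0.25 for B. subtilis, and growth was followed as 620 nm backscatter in a BioLector at 1200 rpm. Final backscatter, growth rate and lag phase were compared with DMSO controls.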

[2] = tested on: Escherichia coli K-12 MG1655; assay: Bacterial growth in microscale cultivation, E. coli; assay type: cell-based; conditions: relative to control; for activity at 0.3 µM / activity at 3 µM / activity at 30 µM: Escherichia coli
In short: as §1

Bacillus subtilis 168 = assay: Bacterial growth in microscale cultivation, B. subtilis; assay type: cell-based; conditions: relative to control
In short: as §1

F. trinervia PEPC = target: T1, F. trinervia PEPC (Flaveria trinervia, UniProt P30694); assay: biochemical; assay type: biochemical
T1 construct: the full-length ppcA gene of PEPC from F. trinervia (EMBL-Bank X61304); made in house; host or cells: Escherichia coli BL21(DE3)
T1 sequence (P30694 1-966): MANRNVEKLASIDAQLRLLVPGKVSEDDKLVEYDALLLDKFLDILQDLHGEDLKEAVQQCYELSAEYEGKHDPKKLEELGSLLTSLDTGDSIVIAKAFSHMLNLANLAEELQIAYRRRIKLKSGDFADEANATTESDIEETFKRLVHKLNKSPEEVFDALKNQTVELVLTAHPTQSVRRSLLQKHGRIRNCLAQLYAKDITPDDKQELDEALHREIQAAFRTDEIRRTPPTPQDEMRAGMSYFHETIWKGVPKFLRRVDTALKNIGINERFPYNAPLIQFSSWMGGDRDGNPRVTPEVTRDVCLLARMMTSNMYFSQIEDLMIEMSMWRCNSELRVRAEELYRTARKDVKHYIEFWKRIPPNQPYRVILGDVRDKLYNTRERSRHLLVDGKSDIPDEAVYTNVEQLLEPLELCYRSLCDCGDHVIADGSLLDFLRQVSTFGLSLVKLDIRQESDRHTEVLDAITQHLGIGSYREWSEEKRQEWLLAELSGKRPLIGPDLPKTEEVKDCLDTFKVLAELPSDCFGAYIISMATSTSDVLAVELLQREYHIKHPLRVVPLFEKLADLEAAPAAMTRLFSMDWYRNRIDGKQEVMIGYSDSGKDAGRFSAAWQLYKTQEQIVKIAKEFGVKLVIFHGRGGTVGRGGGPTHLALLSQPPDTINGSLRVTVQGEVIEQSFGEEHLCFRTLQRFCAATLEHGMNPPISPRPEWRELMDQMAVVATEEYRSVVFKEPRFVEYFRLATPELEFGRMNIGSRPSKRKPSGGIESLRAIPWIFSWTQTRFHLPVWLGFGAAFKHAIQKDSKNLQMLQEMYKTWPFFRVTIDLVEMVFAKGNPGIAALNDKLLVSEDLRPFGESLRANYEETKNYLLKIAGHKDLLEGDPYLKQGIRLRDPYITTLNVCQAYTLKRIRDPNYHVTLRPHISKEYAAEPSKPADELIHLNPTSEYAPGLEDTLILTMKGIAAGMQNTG

**Q.** Which results are given for `O=C(/C=C/c1ccc(O)c(O)c1)c1c(O)cc(O)cc1O` [Compound 11, 2′,4′,6′,3,4-Pentahydroxy-chalcone]?
**A.** activity at 0.3 µM ([1]; KT2440, complex medium, 0.3 µM, read-out: Final Backscatter): 92.6%; activity at 0.3 µM ([1]; KT2440, complex medium, 0.3 µM, read-out: Growth rate): 108%; activity at 3 µM ([1]; KT2440, complex medium, 3 µM, read-out: Final Backscatter): 96.8%; activity at 3 µM ([1]; KT2440, complex medium, 3 µM, read-out: Growth rate): 106%; activity at 30 µM ([1]; KT2440, complex medium, 30 µM, read-out: Final Backscatter): 92.5%; activity at 30 µM ([1]; KT2440, complex medium, 30 µM, read-out: Growth rate): 105%; activity at 0.3 µM ([1]; KT2440, minimal medium, 0.3 µM, read-out: Final Backscatter): 93.9%; activity at 0.3 µM ([1]; KT2440, minimal medium, 0.3 µM, read-out: Growth rate): 96.8%; activity at 3 µM ([1]; KT2440, minimal medium, 3 µM, read-out: Final Backscatter): 94.9%; activity at 3 µM ([1]; KT2440, minimal medium, 3 µM, read-out: Growth rate): 98.7%; activity at 30 µM ([1]; KT2440, minimal medium, 30 µM, read-out: Final Backscatter): 99%; activity at 30 µM ([1]; KT2440, minimal medium, 30 µM, read-out: Growth rate): 95.2%; Lag Phase ([1]; complex medium, 0.3 µM): 95,5%; Lag Phase ([1]; complex medium, 3 µM): 97,5%; Lag Phase ([1]; complex medium, 30 µM): 97,0%; Lag Phase ([1]; minimal medium, 0.3 µM): 99,3%; Lag Phase ([1]; minimal medium, 3 µM): 98,9%; Lag Phase ([1]; minimal medium, 30 µM): 98,9%; activity at 0.3 µM ([2]; MG1655, complex medium, 0.3 µM, read-out: Final Backscatter): 98%; activity at 0.3 µM ([2]; MG1655, complex medium, 0.3 µM, read-out: Growth rate): 104%; activity at 3 µM ([2]; MG1655, complex medium, 3 µM, read-out: Final Backscatter): 98.1%; activity at 3 µM ([2]; MG1655, complex medium, 3 µM, read-out: Growth rate): 106%; activity at 30 µM ([2]; MG1655, complex medium, 30 µM, read-out: Final Backscatter): 96.9%; activity at 30 µM ([2]; MG1655, complex medium, 30 µM, read-out: Growth rate): 104%; activity at 0.3 µM ([2]; MG1655, minimal medium, 0.3 µM, read-out: Final Backscatter): 98%; activity at 0.3 µM ([2]; MG1655, minimal medium, 0.3 µM, read-out: Growth rate): 107%; activity at 3 µM ([2]; MG1655, minimal medium, 3 µM, read-out: Final Backscatter): 98.7%; activity at 3 µM ([2]; MG1655, minimal medium, 3 µM, read-out: Growth rate): 109%; activity at 30 µM ([2]; MG1655, minimal medium, 30 µM, read-out: Final Backscatter): 97.9%; activity at 30 µM ([2]; MG1655, minimal medium, 30 µM, read-out: Growth rate): 107%; Lag Phase ([2]; complex medium, 0.3 µM): 107,1%; Lag Phase ([2]; complex medium, 3 µM): 107,1%; Lag Phase ([2]; complex medium, 30 µM): 107,1%; Lag Phase ([2]; minimal medium, 0.3 µM): 103,4%; Lag Phase ([2]; minimal medium, 3 µM): 101,7%; Lag Phase ([2]; minimal medium, 30 µM): 103,4%; activity at 0.3 µM (Bacillus subtilis 168; Bacillus subtilis, 168, complex medium, 0.3 µM, read-out: Final Backscatter): 97.4%; activity at 0.3 µM (Bacillus subtilis 168; Bacillus subtilis, 168, complex medium, 0.3 µM, read-out: Growth rate): 106%; activity at 3 µM (Bacillus subtilis 168; Bacillus subtilis, 168, complex medium, 3 µM, read-out: Final Backscatter): 96.5%; activity at 3 µM (Bacillus subtilis 168; Bacillus subtilis, 168, complex medium, 3 µM, read-out: Growth rate): 106%; activity at 30 µM (Bacillus subtilis 168; Bacillus subtilis, 168, complex medium, 30 µM, read-out: Final Backscatter): 97.1%; activity at 30 µM (Bacillus subtilis 168; Bacillus subtilis, 168, complex medium, 30 µM, read-out: Growth rate): 97.8%; activity at 0.3 µM (Bacillus subtilis 168; Bacillus subtilis, 168, minimal medium, 0.3 µM, read-out: Final Backscatter): 97.2%; activity at 0.3 µM (Bacillus subtilis 168; Bacillus subtilis, 168, minimal medium, 0.3 µM, read-out: Growth rate): 114%; activity at 3 µM (Bacillus subtilis 168; Bacillus subtilis, 168, minimal medium, 3 µM, read-out: Final Backscatter): 98.7%; activity at 3 µM (Bacillus subtilis 168; Bacillus subtilis, 168, minimal medium, 3 µM, read-out: Growth rate): 107%; activity at 30 µM (Bacillus subtilis 168; Bacillus subtilis, 168, minimal medium, 30 µM, read-out: Final Backscatter): 103%; activity at 30 µM (Bacillus subtilis 168; Bacillus subtilis, 168, minimal medium, 30 µM, read-out: Growth rate): 103%; Lag Phase (Bacillus subtilis 168; complex medium, 0.3 µM): 100,0%; Lag Phase (Bacillus subtilis 168; complex medium, 3 µM): 100,0%; Lag Phase (Bacillus subtilis 168; complex medium, 30 µM): 100,0%; Lag Phase (Bacillus subtilis 168; minimal medium, 0.3 µM): 100,0%; Lag Phase (Bacillus subtilis 168; minimal medium, 3 µM): 101,1%; Lag Phase (Bacillus subtilis 168; minimal medium, 30 µM): 100,0%; lower inhibitory effect / weaker inhibitory potency compared to okanin (12) (F. trinervia PEPC; C4 PEPC): ~ four; Selectivity C4/C3 (F. trinervia PEPC; C4 PEPC over C3 isoform): 3.3 fold; IC50 (F. trinervia PEPC; C4 PEPC, read-out: IC50 F. trinervia PEPC): 2500 ± 100 nM; decreased / lower selectivity compared to okanin (12) (F. trinervia PEPC; C4 vs. C3 PEPC): ~ 14 fold and ~ 13 fold
